Numbered stars: 1 amine (or outer) side, 2 acyl side, 3 side chain; on linkers, the order of the positions; unused ones are H or OH. Side chains are listed from the residue outwards. Peptide text beside a SMILES is read from it. * marks the point of attachment. C18 diacid = O=C(O)CCCCCCCCCCCCCCCCC(=O)*; γGlu = O=C(O)[C@H](CCC(=O)[*:2])N[*:1]; AEEA = NCCOCCOCC(=O)O
experiment: Assay (II) PK i.v. minipig, in vivo half-life; design: species or system Göttingen mini-pigs; conditions: male, Göttingen, minipig, iv, Half-life minipig, Assay (II)
Procedure, shortened: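 Plasma levels after a single 6 nmol/kg intravenous dose in five male Göttingen mini-pigs were measured by TFC/LC/MS/MS against spiked-plasma calibration, sampling to 240 h. Vehicle: 50 mM K2HPO4, 0.05% tween 80, pH 8.0. Individual profiles analysed non-compartmentally for half-life.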

Structure (SMILES)	half-life [min]
CC[C@H](C)[C@H](NC(=O)[C@H](Cc1ccc(O)cc1)NC(=O)[C@H](CCCNC(=N)N)NC(=O)[C@H](CCCNC(=N)N)NC(=O)[C@H](CC(C)C)NC(=O)[C@H](CCCCNC(=O)COCCOCCNC(=O)COCCOCCNC(=O)CC[C@H](NC(=O)CCCCCCCCCCCCCCCCC(=O)O)C(=O)O)NC(=O)[C@H](C)NC(=O)[C@H](C)NC(=O)[C@H](Cc1ccc(O)cc1)NC(=O)[C@H](CCC(N)=O)NC(=O)[C@H](C)NC(=O)[C@H](CCSC)NC(=O)[C@H](CCC(N)=O)NC(=O)[C@H](CCC(=O)O)NC(=O)[C@@H]1CCCN1C(=O)[C@@H](NC(=O)[C@H](C)NC(=O)[C@H](CC(N)=O)NC(=O)[C@H](CC(=O)O)NC(=O)CNC(=O)[C@@H]1CCCN1C(=O)[C@H](Cc1ccc(O)cc1)NC(=O)[C@@H](NC(=O)[C@@H]1CCCN1C(=O)[C@H](CCC(=O)O)NC(=O)[C@H](CC(C)C)NC(=O)[C@@H]1CCCN1)C(C)C)[C@@H](C)O)C(=O)N[C@@H](CC(N)=O)C(=O)N[C@@H](CCSC)C(=O)N[C@@H](CC(C)C)C(=O)N[C@H](C(=O)N[C@@H](CCCNC(=N)N)C(=O)N1CCC[C@H]1C(=O)N[C@@H](CCCNC(=N)N)C(=O)N[C@@H](Cc1ccc(O)cc1)C(N)=O)[C@@H](C)O [Compound K] (H-PLEPVYPGDNATPEQMAQYAAK([AEEA-AEEA-γGlu-C18 diacid])LRRYINMLTRPRY-NH2; N-terminus and C-terminus assumed)	1800
CC[C@H](C)[C@H](NC(=O)[C@H](Cc1ccc(O)cc1)NC(=O)[C@H](CCCNC(=N)N)NC(=O)[C@H](CCCNC(=N)N)NC(=O)[C@H](CC(C)C)NC(=O)[C@H](CCCCNC(=O)COCCOCCNC(=O)COCCOCCNC(=O)CC[C@H](NC(=O)CCCCCCCCCCCCCCCCC(=O)O)C(=O)O)NC(=O)[C@H](C)NC(=O)[C@H](C)NC(=O)[C@H](Cc1ccc(O)cc1)NC(=O)[C@H](CCC(N)=O)NC(=O)[C@H](C)NC(=O)[C@H](CCSC)NC(=O)[C@H](CCC(N)=O)NC(=O)[C@H](CCC(=O)O)NC(=O)[C@@H]1CCCN1C(=O)[C@@H](NC(=O)[C@H](C)NC(=O)[C@H](CC(N)=O)NC(=O)[C@H](CC(=O)O)NC(=O)CNC(=O)[C@@H]1CCCN1C(=O)[C@H](Cc1ccc(O)cc1)NC(=O)[C@@H](NC(=O)[C@@H]1CCCN1C(=O)[C@H](CCC(=O)O)NC(=O)[C@@H](N)CC(C)C)C(C)C)[C@@H](C)O)C(=O)N[C@@H](CC(N)=O)C(=O)N[C@@H](CCSC)C(=O)N[C@@H](CC(C)C)C(=O)N[C@H](C(=O)N[C@@H](CCCNC(=N)N)C(=O)N1CCC[C@H]1C(=O)N[C@@H](CCCNC(=N)N)C(=O)N[C@@H](Cc1ccc(O)cc1)C(N)=O)[C@@H](C)O [Compound AS] (H-LEPVYPGDNATPEQMAQYAAK([AEEA-AEEA-γGlu-C18 diacid])LRRYINMLTRPRY-NH2; N-terminus and C-terminus assumed)	600
CC[C@H](C)[C@H](NC(=O)[C@H](Cc1ccc(O)cc1)NC(=O)[C@H](CCCNC(=N)N)NC(=O)[C@H](CCCNC(=N)N)NC(=O)[C@H](CC(C)C)NC(=O)[C@H](CC(=O)O)NC(=O)[C@H](C)NC(=O)[C@H](C)NC(=O)[C@H](Cc1ccc(O)cc1)NC(=O)[C@H](CCC(N)=O)NC(=O)[C@H](C)NC(=O)[C@H](CCSC)NC(=O)[C@H](CCC(N)=O)NC(=O)[C@H](CCC(=O)O)NC(=O)[C@@H]1CCCN1C(=O)[C@@H](NC(=O)[C@H](C)NC(=O)[C@H](CC(N)=O)NC(=O)[C@H](CC(=O)O)NC(=O)CNC(=O)[C@@H]1CCCN1C(=O)[C@H](Cc1ccc(O)cc1)NC(=O)[C@@H](NC(=O)[C@@H]1CCCN1C(=O)[C@H](CCC(=O)O)NC(=O)[C@H](CC(C)C)NC(=O)[C@@H]1CCCN1)C(C)C)[C@@H](C)O)C(=O)N[C@@H](CC(N)=O)C(=O)N[C@@H](CCSC)C(=O)N[C@@H](CC(C)C)C(=O)N[C@@H](CCCCNC(=O)COCCOCCNC(=O)COCCOCCNC(=O)CC[C@H](NC(=O)CCCCCCCCCCCCCCCCC(=O)O)C(=O)O)C(=O)N[C@@H](CCCNC(=N)N)C(=O)N1CCC[C@H]1C(=O)N[C@@H](CCCNC(=N)N)C(=O)N[C@@H](Cc1ccc(O)cc1)C(N)=O [Compound B] (H-PLEPVYPGDNATPEQMAQYAADLRRYINMLK([AEEA-AEEA-γGlu-C18 diacid])RPRY-NH2; N-terminus and C-terminus assumed)	5580
CC[C@H](C)[C@H](NC(=O)[C@H](Cc1ccc(O)cc1)NC(=O)[C@H](CCCNC(=N)N)NC(=O)[C@H](CCCNC(=N)N)NC(=O)[C@H](CC(C)C)NC(=O)[C@H](CC(=O)O)NC(=O)[C@H](C)NC(=O)[C@H](C)NC(=O)[C@H](Cc1ccc(O)cc1)NC(=O)[C@H](CCC(N)=O)NC(=O)[C@H](C)NC(=O)[C@H](CCSC)NC(=O)[C@H](CCC(N)=O)NC(=O)[C@H](CCC(=O)O)NC(=O)[C@@H]1CCCN1C(=O)[C@@H](NC(=O)[C@H](C)NC(=O)[C@H](CC(N)=O)NC(=O)[C@H](CC(=O)O)NC(=O)CNC(=O)[C@H](CCCCNC(=O)COCCOCCNC(=O)COCCOCCNC(=O)CC[C@H](NC(=O)CCCCCCCCCCCCCCCCC(=O)O)C(=O)O)NC(=O)[C@H](Cc1ccc(O)cc1)NC(=O)[C@@H](NC(=O)[C@@H]1CCCN1C(=O)[C@H](CCC(=O)O)NC(=O)[C@@H](N)CC(C)C)C(C)C)[C@@H](C)O)C(=O)N[C@@H](CC(N)=O)C(=O)N[C@@H](CCSC)C(=O)N[C@@H](CC(C)C)C(=O)N[C@H](C(=O)N[C@@H](CCCNC(=N)N)C(=O)N1CCC[C@H]1C(=O)N[C@@H](CCCNC(=N)N)C(=O)N[C@@H](Cc1ccc(O)cc1)C(N)=O)[C@@H](C)O [Compound BH]	600
CC[C@H](C)[C@H](NC(=O)[C@H](Cc1ccc(O)cc1)NC(=O)[C@H](CCCNC(=N)N)NC(=O)[C@H](CCCNC(=N)N)NC(=O)[C@H](CC(C)C)NC(=O)[C@H](CC(=O)O)NC(=O)[C@H](C)NC(=O)[C@H](C)NC(=O)[C@H](CCCCNC(=O)COCCOCCNC(=O)COCCOCCNC(=O)CC[C@H](NC(=O)CCCCCCCCCCCCCCCCC(=O)O)C(=O)O)NC(=O)[C@H](CCC(N)=O)NC(=O)[C@H](C)NC(=O)[C@H](CCSC)NC(=O)[C@H](CCC(N)=O)NC(=O)[C@H](CCC(=O)O)NC(=O)[C@@H]1CCCN1C(=O)[C@@H](NC(=O)[C@H](C)NC(=O)[C@H](CC(N)=O)NC(=O)[C@H](CC(=O)O)NC(=O)CNC(=O)[C@@H]1CCCN1C(=O)[C@H](Cc1ccc(O)cc1)NC(=O)[C@@H](NC(=O)[C@@H]1CCCN1C(=O)[C@H](CCC(=O)O)NC(=O)[C@H](CC(C)C)NC(=O)[C@@H]1CCCN1)C(C)C)[C@@H](C)O)C(=O)N[C@@H](CC(N)=O)C(=O)N[C@@H](CCSC)C(=O)N[C@@H](CC(C)C)C(=O)N[C@H](C(=O)N[C@@H](CCCNC(=N)N)C(=O)N1CCC[C@H]1C(=O)N[C@@H](CCCNC(=N)N)C(=O)N[C@@H](Cc1ccc(O)cc1)C(N)=O)[C@@H](C)O [Compound N] (H-PLEPVYPGDNATPEQMAQK([AEEA-AEEA-γGlu-C18 diacid])AADLRRYINMLTRPRY-NH2; N-terminus and C-terminus assumed)	2640
CC[C@H](C)[C@H](NC(=O)[C@H](Cc1ccc(O)cc1)NC(=O)[C@H](CCCNC(=N)N)NC(=O)[C@H](CCCNC(=N)N)NC(=O)[C@H](CC(C)C)NC(=O)[C@H](CC(=O)O)NC(=O)[C@H](C)NC(=O)[C@H](C)NC(=O)[C@H](Cc1ccc(O)cc1)NC(=O)[C@H](CCC(N)=O)NC(=O)[C@H](C)NC(=O)[C@H](CCSC)NC(=O)[C@H](CCC(N)=O)NC(=O)[C@H](CCC(=O)O)NC(=O)[C@@H]1CCCN1C(=O)[C@@H](NC(=O)[C@H](CCCCNC(=O)COCCOCCNC(=O)COCCOCCNC(=O)CC[C@H](NC(=O)CCCCCCCCCCCCCCCCC(=O)O)C(=O)O)NC(=O)[C@H](CC(N)=O)NC(=O)[C@H](CC(=O)O)NC(=O)CNC(=O)[C@@H]1CCCN1C(=O)[C@H](Cc1ccc(O)cc1)NC(=O)[C@@H](NC(=O)[C@@H]1CCCN1C(=O)[C@H](CCC(=O)O)NC(=O)[C@H](CC(C)C)NC(=O)[C@@H]1CCCN1)C(C)C)[C@@H](C)O)C(=O)N[C@@H](CC(N)=O)C(=O)N[C@@H](CCSC)C(=O)N[C@@H](CC(C)C)C(=O)N[C@H](C(=O)N[C@@H](CCCNC(=N)N)C(=O)N1CCC[C@H]1C(=O)N[C@@H](CCCNC(=N)N)C(=O)N[C@@H](Cc1ccc(O)cc1)C(N)=O)[C@@H](C)O [Compound V]	2160
CC[C@H](C)[C@H](NC(=O)[C@H](Cc1ccc(O)cc1)NC(=O)[C@H](CCCNC(=N)N)NC(=O)[C@H](CCCNC(=N)N)NC(=O)[C@H](CC(C)C)NC(=O)[C@H](CC(=O)O)NC(=O)[C@H](C)NC(=O)[C@H](C)NC(=O)[C@H](Cc1ccc(O)cc1)NC(=O)[C@H](CCC(N)=O)NC(=O)[C@H](C)NC(=O)[C@H](CCSC)NC(=O)[C@H](CCC(N)=O)NC(=O)[C@H](CCC(=O)O)NC(=O)[C@@H]1CCCN1C(=O)[C@@H](NC(=O)[C@H](C)NC(=O)[C@H](CC(N)=O)NC(=O)[C@H](CC(=O)O)NC(=O)CNC(=O)[C@@H]1CCCN1C(=O)[C@H](Cc1ccc(O)cc1)NC(=O)[C@@H](NC(=O)[C@@H]1CCCN1C(=O)[C@H](CCC(=O)O)NC(=O)[C@H](CC(C)C)NC(=O)[C@@H]1CCCN1)C(C)C)[C@@H](C)O)C(=O)N[C@@H](CC(N)=O)C(=O)N[C@@H](CCSC)C(=O)N[C@@H](CC(C)C)C(=O)N[C@H](C(=O)N[C@@H](CCCNC(=N)N)C(=O)N[C@@H](CCCCNC(=O)COCCOCCNC(=O)COCCOCCNC(=O)CC[C@H](NC(=O)CCCCCCCCCCCCCCCCC(=O)O)C(=O)O)C(=O)N[C@@H](CCCNC(=N)N)C(=O)N[C@@H](Cc1ccc(O)cc1)C(N)=O)[C@@H](C)O [Compound A] (H-PLEPVYPGDNATPEQMAQYAADLRRYINMLTRK([AEEA-AEEA-γGlu-C18 diacid])RY-NH2; N-terminus and C-terminus assumed)	5940

Reference: patent US20150141336A1, “Pancreatic Peptide Compounds and Use” (Novo Nordisk A/S, priority 2012, published 2015)
